From a melting point compilation (Tetko et al.; mined from patent text by program, amines drawn as free bases though some values may be those of a salt)

SMILES | melting point [°C]
COC(=O)c1ccc(Nc2nc(Nc3ccc(C(=O)OC)cc3)nc(Nc3ccc(C(=O)OCCOc4ccc(C(C)(C)CC(C)(C)C)cc4)cc3)n2)cc1 | 157 to 160
O=C(O)CCC1C2CC3CC(C2)CC1C3 (stereo unspecified) | 116
COc1c(/C=C/c2ccc(C#N)cc2)c(C)cc2c1C(C)(C)CCC2(C)C | 120
Nc1ccc(C2CCNC2)c(F)c1 (stereo unspecified) | 108 to 109
COc1ccc(-c2c(C)ncc(C#N)c2Nc2cccc3[nH]ccc23)cc1OC | 182 to 183
CN(C)CCCOc1ccc(-c2nnc(CSCCOc3ccccc3)n2-c2ccccc2)cc1 | 120 to 123
COc1cc(C)cc(C2=NC(C)(C)CO2)c1N | 135 to 138
COc1ccc2[nH]c(SCc3nccc(N(C)C)n3)nc2c1 | 182 to 183
CNc1cc(NS(=O)(=O)c2ccc(N)cc2)nc(N2CCCC2)n1 | 299 to 301
Nc1nc2cc(Cl)c(Cl)cc2n1Cc1ccccc1 | 245 to 246
CNCc1csc(-c2cccc(C3=Nc4cc(N(C)C)c(Cl)cc4NC(=O)C3)c2)n1 | 129 to 130
CN(C/C=C/C#CC(C)(C)C)Cc1cccc(N(C)Cc2ccccc2)c1 | 62 to 63
CCOc1cc(C)nc2nc(S(=O)(=O)Nc3c(Cl)ccc(C)c3Cl)nn12 | 228 to 229
Cc1[nH]n(Cc2ccc(C(N)=O)cc2)c2nc(-c3ccncc3)nc(=O)c1-2 | > 300
N#Cc1cccc(-c2nc(-c3ccccn3)no2)c1 | 148 to 149
COC(=O)c1cc(Cl)cc(OC)c1O | 105
O=C(C[C@@H](CCCC1CCCCC1)c1nc(CNC2CCCCC2)no1)NO | 127
COC(=O)N[C@H](C(=O)NC(Cc1ccccc1)C(O)CNCC(O)[C@@H](Cc1ccc(OCCc2ccccn2)cc1)NC(=O)OC(C)(C)C)C(C)(C)C (relative stereo) | 139 to 141
CNc1nc(-c2cccc(NC(=O)c3ccccc3Cl)c2)c2cc(OC)c(OC)cc2n1 | 197 to 199
COc1cc2c(c(OC)c1OC)CC(N1CCC(n3c(=O)[nH]c4ccccc43)CC1)C2=O (stereo unspecified) | 197 to 199
COc1ccc(Cc2cc3cccc(-c4cccc(C(=O)NCCO)c4)c3s2)cn1 | 138 to 139

SMILES | melting point [°C]
O=C(Nc1ccc(Br)cn1)C(F)(F)F | 70 to 72
CC(C)c1cc(C(=O)O)oc1C(C)C | 105 to 106
COC(=O)c1c(C(=O)O)n(-c2ccc(OC(C)C)cc2)c2ccc(Oc3ccc(C(F)(F)F)cc3)cc12 | 191
COCCOCCN1C(=O)C2(COc3cc4c(cc32)OCCO4)c2c(OC)cc(OC)cc21 (stereo unspecified) | 158 to 160
Cc1ccc(S(=O)(=O)NC(=O)C(C)(NC(=O)NN(C)C)C(C)C)cc1 (stereo unspecified) | 96 to 98
S=C1CN=C(c2ccccc2)c2ccsc2N1 | 208 to 210
CNn1c(N(C)C)nn(C(=O)NC2CCCC2)c1=O | 137
CC=C1CCC2C3CCC4CC(O)CCC4(C)C3C(=NO)CC12C (stereo unspecified) | 233 to 235
CC1(C)CCC(O)(c2ccc(=O)[nH]c2)CC1 | 210 to 211
COc1ccccc1C(=O)c1cccc(NC(=O)c2ccn3c2CSC3c2cccnc2)c1 (stereo unspecified) | 184
CCN(CC)CCOc1ccc(Nc2ncc3c(n2)N(C)C(=O)N(Cc2ccc(OC)cc2)C3)cc1 | 112
COc1cc(-c2cnc3[nH]cc(C(=O)Cc4ccccc4)c3n2)cc(OC)c1OC | 226 to 227
Cc1cc(S(F)(F)(F)(F)F)ccc1N | 65 to 66
Cc1cc(CN2CCN(C(C)C)CC2)cc2c1Cc1c(-c3ccsc3)n[nH]c1-2 | 113 to 114
Cc1cc(O)c2c(C)nn(-c3ccccn3)c2n1 | 175 to 176
O=C(O)CCOc1ccc2c(c1)CCO2 | 131 to 132
CCNc1c(C(=O)OCC)c(C)nc(Cl)c1[N+](=O)[O-] | 36 to 37
CC(CCNCCOc1cccc2[nH]ccc12)c1c[nH]c2ccccc12 (stereo unspecified) | 70 to 73
Cc1ccc(OC(=CC(=O)c2ccc(Br)cc2)C(=O)c2ccc(Br)cc2)cc1 | 137 to 138
CC(C)C(=O)NC(C)(C)C | 117 to 119
c1ccc(-c2nc(CSc3nc4cccc5c4n3CCC5)cs2)cc1 | 116 to 118

SMILES | melting point [°C]
CC1CC(=O)N(CCCCN2CCN(c3cncc(Cl)n3)CC2)S(=O)(=O)N1 (stereo unspecified) | 107 to 109
CCOCc1nc2c(N)nc3cc(NS(=O)(=O)CC)ccc3c2n1CC(C)(C)O | 124 to 127
COC(=O)CCC(=O)CBr | 12 to 15
COc1nc(C)nc(NC(=O)NS(=O)(=O)c2cccc3c2nnn3C)n1 | 134 to 136
CC(=O)c1cccc(C(=O)NC(Nc2c(Nc3cccnc3)c(=O)c2=O)C(C)(C)C)c1 (stereo unspecified) | 218 to 219
COc1cc(/C=C/S(=O)(=O)CS(=O)(=O)/C=C/c2ccc(O)c(OC)c2)ccc1O | 125 to 127
COc1ccccc1NC(=O)Nc1nc(Nc2ccccc2-c2ccccc2)nc(N(CCC(=O)O)Cc2ccc(C)cc2)n1 | 102
CCCCc1cnc(-c2cnc(-c3ccc(F)cc3)nc2)nc1 | 196
COC12CC(c3nnc(-c4cncc(Br)c4)[nH]3)CN(C)C1Cc1c[nH]c3cccc2c13 (stereo unspecified) | 142 to 146
CN(C1=CC(C)(C)Oc2ccc(OCCCC(F)(F)F)cc21)S(C)(=O)=O | 118
CN(COC(=O)Cc1ccccc1)C(=O)OC(C)(C)C | 96 to 98
Cc1cccc(C(=O)c2[nH]c3cc(Cl)ccc3c2NC(=O)CC(C)C)c1 | 182 to 185
CCC(CC)(c1ccccc1F)c1c[nH]c2c(NS(C)(=O)=O)cccc12 | 144 to 146
COc1ccc(-c2nc(C(F)(F)F)c[nH]2)cc1 | 204 to 206
Nc1nc(N)nc(C23CC4CC(CC(C4)C2)C3)n1 | 261 to 262
CSc1cc2nc[nH]c(=O)c2s1 | 216 to 218
CC(Br)(CC(Cl)(Cl)Cl)c1cccc(Cl)n1 (stereo unspecified) | 42 to 45
CN(C)C(=O)Oc1ccc2nc(S(N)(=O)=O)sc2c1 | 208 to 209
CCOC(=O)C(NC(=O)OC(C)(C)C)=C1CSCSC1 | 154
Clc1ccc(-c2cncn3ncnc23)cc1 | 154 to 155
CCCCCCCCCCCCCCCCCCNCC(O)COc1ccc(Nc2ccccc2)cc1 (stereo unspecified) | 81 to 86

More lines, now with the values ahead:

melting point [°C] | SMILES
197 to 199 | Nc1c2c(nc3ccccc13)C1CCC2CC1
259 to 260 | COc1cn(-c2ccc(N3CCNC3=O)cc2F)nc(-c2ccnn2-c2ccccc2)c1=O
91 to 93 | CN(Cc1ccccc1)CC1CCSc2[nH]c3ccccc3c21 (stereo unspecified)
193 to 194 | CN1CCN(c2ccccc2C=CC(=O)NCc2ccc(Cl)cc2)CC1
223 to 225 | CON=Cc1ccc2c(c1)c1c(n2CCc2cccc(F)n2)CC[C@@H](NC(=O)C2CC2)C1
205 to 207 | Cc1cn(C2CCCCC2)c(=O)nc1N
185 to 186 | CSc1ncc2c(=O)[nH]c(-c3ccccc3OCC(C)C)nc2n1
128 | CCOC(=O)N1CC[C@@H](N2C(=O)c3ccccc3C2=O)[C@H](O)C1 (relative stereo)
73 to 75 | CCOC(=O)C1CCc2cc(O)c(C(C)=O)cc2C1 (stereo unspecified)
130 to 132 | O=C1C=C(Br)C(=O)c2ccccc21
236 to 238 | Cc1nc2c(N)nc3ccccc3c2n1CCCNS(C)(=O)=O
151 to 155 | O=C1c2ccccc2CN1C1CCN(c2ccc(Cc3ccccc3)cc2)CC1
207 to 209 | O=S1(=O)N=CN(C2CC2)c2cccc(Cl)c21
165 to 167 | COc1ccc(S(=O)(=O)N(Cc2ccccc2)c2c(C(=O)O)cnc3c2c(C)nn3C)cc1
169 to 170 | CC1CN(c2c(Cl)nc3ccc(F)cc3c2C(N)=O)CC(C)N1 (stereo unspecified)
129 to 131 | COC(=O)c1ccc2c(c1)ncn2-c1ccc(OC)c(C2CCCC2)c1
187 to 190 | O=C(O)c1ccc2c(c1)COC2c1ccc(F)cc1 (stereo unspecified)
152 to 153 | CCOC(=O)c1ccc(Oc2ccccc2C(=O)O)cc1
92 to 94 | CCCCOc1cc(-c2ccccc2)c(OCC(=O)O)c(-c2ccccc2)c1

melting point [°C] | SMILES
118 to 122 | Cc1ccc([C@@H]2c3c(C)c(N4C(=O)CC(c5ccccc5)CC4=O)c(C)c(C)c3OC2(C)C)cc1
51 to 54 | COc1ccc(N(CCN2CCC(C(=O)c3ccc(F)cc3)CC2)C(=O)c2ccc([N+](=O)[O-])cc2)c(OC)c1
220 | CCCC(=O)Nc1n[nH]c2cc(-c3ccc(O)cc3)c(-c3ccccc3)cc12
255 | CN1CCN(C(=O)OC2C3=C(SCCS3)C(=O)N2c2ccc3cccnc3n2)CC1 (stereo unspecified)
199 to 201 | N#CC1(N2CCC(n3c(=O)[nH]c4ccccc43)CC2)CCCCC1
112 | CC(C)(C)OC(=O)N1CC[C@H](c2ccc3c(c2)OCO3)[C@@H](O)C1 (racemic)
146 | N#Cc1ccccc1OCC1CN=C(N)O1 (stereo unspecified)
102 | CC(=O)NCCN1CCCc2ccccc21
> 250 | CCOc1cccc2c1C(=NNc1ccc(S(N)(=O)=O)cc1)C(=O)N2
121 to 123 | CCCc1cc(NC(=O)N2CCN(c3cc(F)cc(F)c3)CC2)c(OC)nc1C
139 to 141 | CCOC(=O)C1=C(C)NC(=S)N(C(=O)c2ccc([N+](=O)[O-])cc2)C1c1cccc([N+](=O)[O-])c1 (stereo unspecified)
140 to 141 | CCOc1cc(C(=O)c2ccccn2)ccc1OCCO
175 to 176 | Cc1cn(C2CC(O)C(CO)(N=[N+]=[N-])O2)c(=O)[nH]c1=O (stereo unspecified)
97 to 98 | Cc1cccc(C)c1NCCCN1C(=O)c2ccccc2C1=O
194 to 196 | COc1cc2c(cc1OC)C(C(=O)O)C(c1ccc(OCc3ccccc3)c(OCc3ccccc3)c1)N(C)C2=O (stereo unspecified)
224 to 226 | CCC=Cc1ncc(/C=C(\Cc2cccs2)C(=O)O)n1Cc1ccccc1Cl
240 to 242 | O=C1C(=O)c2ccc(-c3cccnc3)cc2C2=C1SCC1(CCN(C(=O)c3cccc(Cl)c3)CC1)O2
280 to 295 | Cc1[nH]c(=O)c2ccccc2c1CC(=O)O
> 200 | O=C(Nc1cccnc1)N1CCc2cc(I)c(Cl)cc21
